# Patent publication US20080194574A1, “Pyrazine Derivatives As Effective Compounds Against Infectious Diseases” (AXXIMA PHARMACEUTICALS AG, priority 2003, published 2008)
# pIC50: −log10 of the molar value.
# Target: T1, viral kinase pUL-97 (Human cytomegalovirus, UniProt P16788)
# T1 construct: The pUL-97 gene was cloned into a baculovirus vector; GST (glutathione S-transferase) (N); made in house; host or cells: Sf9 insect cells, baculovirus
# Assay: UL97 kinase assay on Immobilon plate
# Format: biochemical
# Conditions: inhibition of UL 97 kinase activity; class by IC50 / % inhibition at 10 or 100 μM; read-out: Activity Class [A, B, C]
# Protocol: UL97 Kinase-Assay on Immobilon Plate
# The effect of pyrazine derivatives of this invention was tested on the activity of the viral kinase pUL-97. This kinase is derived from human cytomegalovirus (HCMV) (M. Marschall et al., Journal of General Virology, 2001, 82, 1439-1450). The pUL-97 gene was cloned into a baculovirus vector in order to produce GST (glutathione S-transferase) fusion protein. Insect cells (Sf9) were infected and GST-UL-97 purified via glutathione affinity columns according to standard procedures.
# The pUL-97 kinase reaction was performed as described (M. Marschall et al., Journal of General Virology, 2001, 82, 1439-1450). Briefly, 10 μl Assay buffer (3 μM ATP, 60 μg/ml myelin basic protein (MBP) as substrate), 1.0 μCi γ-[^33P]ATP and 10 μl Basic buffer (20 mM Tris-HCl pH7.5, 0.5 mM MnCl2, 1 mM DTT (Dithiothreitol)) were given to the test tube before adding various concentrations of pyrazine derivatives. The reaction was started by adding 0.2 μl pUL-97 kinase, purified from infected Sf9-insect cells as described above. The total volume was adjusted with Basic buffer to a final volume of 30 μl. The reaction mix was incubated for 1 hr at 30° C. For negative control, 10 μl 0.1M EDTA (Ethylene Diamine tetraacetate) was added to reaction mix before addition of pUL-97 protein kinase. The reaction was stopped by addition of 10 μl 0.1 M EDTA.
# Measuring Incorporation of Radioactivity:
# The Immobilon plate (Millipore) was rinsed with 50 μl methanol/well. Following addition of 100 μl 0.1 M EDTA, 20 μl of each kinase reaction mix was added to one well of the Immobilon plate. Each well was washed 4× with 250 μl 0.75% phosphoric acid and 1× with 50 μl methanol. After addition of 50 μl scintillation cocktail (Roth, Germany) per well incorporation of radioactivity was measured using a Betareader (Wallac) and enzymatic activity calculated.
# T1 sequence (P16788 whole entry): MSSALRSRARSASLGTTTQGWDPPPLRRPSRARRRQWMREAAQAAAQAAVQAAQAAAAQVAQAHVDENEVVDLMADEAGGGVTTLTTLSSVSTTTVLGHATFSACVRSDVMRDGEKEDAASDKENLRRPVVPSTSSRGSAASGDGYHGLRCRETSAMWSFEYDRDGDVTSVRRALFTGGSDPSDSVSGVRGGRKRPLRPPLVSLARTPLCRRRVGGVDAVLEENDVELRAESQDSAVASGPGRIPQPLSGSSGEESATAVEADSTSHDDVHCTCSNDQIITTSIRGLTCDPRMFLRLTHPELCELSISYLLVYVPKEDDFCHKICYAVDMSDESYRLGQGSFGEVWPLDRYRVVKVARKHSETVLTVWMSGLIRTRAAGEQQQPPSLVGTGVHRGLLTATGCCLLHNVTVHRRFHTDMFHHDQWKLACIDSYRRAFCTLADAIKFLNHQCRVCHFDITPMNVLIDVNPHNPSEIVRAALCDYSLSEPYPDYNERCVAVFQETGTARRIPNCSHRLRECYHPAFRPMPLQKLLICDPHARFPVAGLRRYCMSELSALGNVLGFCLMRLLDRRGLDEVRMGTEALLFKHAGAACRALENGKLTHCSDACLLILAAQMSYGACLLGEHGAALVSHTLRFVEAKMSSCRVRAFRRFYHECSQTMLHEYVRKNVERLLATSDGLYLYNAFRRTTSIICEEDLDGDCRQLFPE
row,Compound,pIC50
1,"6′-(4-Methylsulfanyl-phenyl)-4-pyridin-4-yl-3,4,5,6-tetrahydro-2H-[1,2′]bipyrazinyl [compound 66]",5.00 to 6.00
2,"6′-Benzo[b]thiophen-2-yl-4-pyridin-4-yl-3,4,5,6-tetrahydro-2H-[1,2′]bipyrazinyl [compound 69]",> 6.00
3,"NC(=O)c1ccc(-c2cncc(N3CCN(c4ccccn4)CC3)n2)cc1 [Comp. 15, 4-(4-Pyridin-2-yl-3,4,5,6-tetrahydro-2H-[1,2′]bipyrazinyl-6′-yl)-benzamide]",> 6.00
4,"NC(=O)c1ccc(-c2cncc(N3CCN(c4ccncc4)CC3)n2)cc1 [Comp. 21, 4-(4-Pyridin-4-yl-3,4,5,6-tetrahydro-2H-[1,2′]bipyrazinyl-6′-yl)-benzamide]",> 6.00
5,"NC(=O)c1ccc(-c2cncc(N3CCN(c4ccccc4)CC3)n2)cc1 [Comp. 68, 4-(4-Phenyl-3,4,5,6-tetrahydro-2H-[1,2′]bipyrazinyl-6′-yl)-benzamide]",> 6.00
6,"NC(=O)c1ccccc1-c1cncc(N2CCN(c3ccncc3)CC2)n1 [Comp. 70, 2-(4-Pyridin-4-yl-3,4,5,6-tetrahydro-2H-[1,2′]bipyrazinyl-6′-yl)-benzamide]",4.00 to 5.00
7,"NC(=O)c1cccc(-c2cncc(N3CCN(c4ccncc4)CC3)n2)c1 [Comp. 71, 3-(4-Pyridin-4-yl-3,4,5,6-tetrahydro-2H-[1,2′]bipyrazinyl-6′-yl)-benzamide]",5.00 to 6.00
8,"c1ccc2cc(-c3cncc(N4CCN(c5ccncc5)CC4)n3)ccc2c1 [Comp. 72, 6′-Naphthalen-2-yl-4-pyridin-4-yl-3,4,5,6-tetrahydro-2H-[1,2-′]bipyrazinyl]",> 6.00
9,"Clc1ccc(-c2cncc(N3CCN(c4ccccn4)CC3)n2)cc1 [compound 14, 6′-(4-Chloro-phenyl)-4-pyridin-2-yl-3,4,5,6-tetrahydro-2H-[1,2′]bipyrazinyl]",4.00 to 5.00
10,"CN(C)c1cccc(-c2cncc(N3CCN(c4ccncc4)CC3)n2)c1 [compound 16, Dimethyl-[3-(4-pyridin-4-yl-3,4,5,6-tetrahydro-2H-[1,2′]bipyrazinyl-6′-yl)-phenyl]-amine]",4.00 to 5.00
11,"c1ccc2cc(-c3cncc(N4CCN(CCN5CCCC5)CC4)n3)ccc2c1 [compound 17, 6′-Naphthalen-2-yl-4-(2-pyrrolidin-1-yl-ethyl)-3,4,5,6-tetrahydro-2H-[1,2′]bipyrazinyl]",> 6.00
12,COc1ccc(-c2cncc(NCCc3cccnc3)n2)cc1 [compound 18],> 6.00
13,"Fc1ccc(-c2cncc(N3CCN(c4ccccn4)CC3)n2)c(F)c1 [compound 19, 6′-(2,4-Difluoro-phenyl)-4-pyridin-2-yl-3,4,5,6-tetrahydro-2H-[1,2′]bipyrazinyl]",4.00 to 5.00
14,"COc1ccc(N2CCN(c3cncc(-c4ccc(C(N)=O)cc4)n3)CC2)cc1OC [compound 20, 4-[4-(3,4-Dimethoxyphenyl)-3,4,5,6-tetrahydro-2H-[1,2′]bipyrazinyl-6′-yl)-benzamide]",> 6.00
15,"c1coc(CNc2cncc(-c3cc4ccccc4o3)n2)c1 [compound 23, (6-Benzofuran-2-yl-pyrazin-2-yl)-furan-2-ylmethyl-amine]",4.00 to 5.00
16,"OCC1CCCN1c1cncc(-c2cc3ccccc3o2)n1 (stereo not shown) [compound 24, [1-(6-Benzofuran-2-yl-pyrazin-2-yl)-pyrrolidin-2-yl]-methanol]",5.00 to 6.00
17,"CCCNc1cncc(-c2ccc(C(N)=O)cc2)n1 [compound 25, 4-(6-Propylamino-pyrazin-2-yl)-benzamide]",> 6.00

row,Compound,pIC50
1,"Clc1ccc(-c2cncc(NCc3ccco3)n2)cc1 [compound 26, [6-(4-Chloro-phenyl)-pyrazin-2-yl]-furan-2-ylmethyl-amine]",> 6.00
2,"Clc1ccc(-c2cncc(NCc3ccccc3)n2)cc1 [compound 27, Benzyl-[6-(4-chloro-phenyl)-pyrazin-2-yl]-amine]",4.00 to 5.00
3,"NC(=O)c1ccc(-c2cncc(NCc3ccccc3)n2)cc1 [compound 28, 4-(6-Benzylamino-pyrazin-2-yl)-benzamide]",> 6.00
4,"Oc1ccc(-c2cncc(NCc3cccs3)n2)cc1 [compound 30, 4-{6-[(Thiophen-2-ylmethyl)-amino]-pyrazin-2-yl}-phenol]",> 6.00
5,"c1ccc(N2CCN(c3cncc(-c4cccs4)n3)CC2)nc1 [compound 31, 4-Pyridin-2-yl-6′-thiophen-2-yl-3,4,5,6-tetrahydro-2H-[1,2′]bipyrazinyl]",4.00 to 5.00
6,"FC(F)(F)c1cccc(-c2cncc(N3CCN(c4ccncc4)CC3)n2)c1 [compound 32, 4-Pyridin-4-yl-6′-(3-trifluoromethyl-phenyl)-3,4,5,6-tetrahydro-2H-[1,2′]bipyrazinyl]",> 6.00
7,"Fc1ccc(-c2cncc(N3CCN(c4ccncc4)CC3)n2)cc1Cl [compound 33, 6′-(3-Chloro-4-fluoro-phenyl)-4-pyridin-4-yl-3,4,5,6-tetrahydro-2H-[1,2′]bipyrazinyl]",> 6.00
8,"NC(=O)c1ccc(-c2cncc(N3CCN(C(=O)c4ccco4)CC3)n2)cc1 [compound 34, 4-[4-(Furan-2-carbonyl)-3,4,5,6-tetrahydro-2H-[1,2′]bipyrazinyl-6′-yl]-benzamide]",> 6.00
9,"NC(=O)c1ccc(-c2cncc(NCCc3c[nH]c4ccccc34)n2)cc1 [compound 35, 4-{6-[2-(1H-Indol-3-yl)-ethylamino]-pyrazin-2-yl}-benzamide]",> 6.00
10,"CC(=O)Nc1cccc(-c2cncc(N3CCN(c4cccc5[nH]ccc45)CC3)n2)c1 [compound 36, N-{3-[4-(1H-Indol-4-yl)-3,4,5,6-tetrahydro-2H-[1,2′]bipyrazinyl-6′-yl]-phenyl}-acetamide]",4.00 to 5.00
11,"COc1cc(-c2cncc(N3CCN(c4cccc5[nH]ccc45)CC3)n2)cc(OC)c1OC [compound 37, 4-(1H-Indol-4-yl)-6′-(3,4,5-trimethoxy-phenyl)-3,4,5,6-tetrahydro-2H-[1,2′]bipyrazinyl]",4.00 to 5.00
12,"COc1ccc(-c2cncc(N3CCN(c4cccc5[nH]ccc45)CC3)n2)cc1 [compound 38, 4-(1H-Indol-4-yl)-6′-(4-methoxy-phenyl)-3,4,5,6-tetrahydro-2H-[1,2′]bipyrazinyl]",5.00 to 6.00
13,"O=C(NCCO)c1cccc(-c2cncc(N3CCN(c4ccncc4)CC3)n2)c1 [compound 39, N-(2-Hydroxy-ethyl)-3-(4-pyridin-4-yl-3,4,5,6-tetrahydro-2H-[1,2′]bipyrazinyl-6′-yl)-benzamide]",4.00 to 5.00
14,"CCNc1cncc(-c2ccc(C(N)=O)cc2)n1 [compound 40, 4-(6-Ethylamino-pyrazin-2-yl)-benzamide]",5.00 to 6.00
15,"COc1ccc(N2CCN(c3cncc(-c4ccc(F)cc4F)n3)CC2)cc1OC [compound 41, 6′-(2,4-Difluoro-phenyl)-4-(3,4-dimethoxy-phenyl)-3,4,5,6-tetrahydro-2H-[1,2′]bipyrazinyl]",4.00 to 5.00
16,"N#Cc1ccccc1N1CCN(c2cncc(-c3ccc(Cl)cc3)n2)CC1 [compound 42, 2-[6′-(4-Chloro-phenyl)-2,3,5,6-tetrahydro-[1,2′]bipyrazinyl-4-yl]-benzonitrile]",5.00 to 6.00
17,"COc1ccc(N2CCN(c3cncc(-c4cccc5ccccc45)n3)CC2)cc1OC [compound 43, 4-(3,4-Dimethoxy-phenyl)-6′-naphthalen-1-yl-3,4,5,6-tetrahydro-2H-[1,2′]bipyrazinyl]",4.00 to 5.00
